Experiments:
smartweed = test: Test F postemergence; assay type: in vivo, Polygonum persicaria; conditions: 500 g ai/ha, scale 0 to 100
From the text: Seeds of plant species selected from corn (Zea mays), soybean (Glycine max), velvetleaf (Abutilon theophrasti), lambsquarters (Chenopodium album), wild poinsettia (Euphorbia heterophylla), pigweed, palmer (palmer pigweed, Amaranthus palmeri), common waterhemp (Amaranthus rudis), surinam grass (Brachiaria decumbens), large crabgrass (Digitaria sanguinalis), crabgrass, Brazil (Brazilian crabgrass, Digitaria horizontalis), fall panicum (Panicum dichotomiflorum), giant foxtail (Setaria faberii), green foxtail (Setaria viridis), goosegrass (Eleusine indica), johnsongrass (Sorghum halepense), common ragweed (Ambrosia elation), barnyardgrass (Echinochloa crus-galli), southern sandbur (Cenchrus echinatus), arrowleaf sida (Sida rhombifolia), Italian ryegrass (Lolium multiflorum), dayflower, VA (Virginia (VA) dayflower, Commelina virginica), field bindweed (Convolvulus arvensis), cocklebur (common cocklebur, Xanthium strumarium), morningglory (Ipomoea coccinea), nightshade (eastern black nightshade, Solanum ptycanthum), kochia (Kochia scoparia), yellow nutsedge (Cyperus esculentus), and hairy beggarticks (Bidens pilosa), were planted into a silt loam soil and treated preemergence with test chemicals formulated in a non-phytotoxic solvent mixture which included a surfactant.
At the same time, plants from these crop and weed species and also horseweed (Canada horseweed, Conyza canadensis), smartweed (ladysthumb smartweed, Polygonum persicaria), waterhemp_RES1, (ALS & Triazine resistant common waterhemp, Amaranthus rudis), and waterhemp_RES2, (ALS & HPPD resistant common waterhemp, Amaranthus rudis) were treated with postemergence applications of test chemicals formulated in the same manner. Plants ranged in height from 2 to 18 cm for postemergence treatments (1- to 4-leaf stage). Treated plants and controls were maintained in a greenhouse for 14 to 21 days, after which time all species were compared to controls and visually evaluated. Plant response ratings, summarized in Table F, are based on a scale of 0 to 100 where 0 is no effect and 100 is complete control. A dash (-) response means no test result.

dallisgrass = test: Test E preemergence; assay type: in vivo, Paspalum dilatatum; conditions: 21 days, scale 0 to 100
From the text: Seeds of plant species selected from bermudagrass (Cynodon dactylon), Surinam grass (Brachiaria decumbens), crabgrass, large (large crabgrass, Digitaria sanguinalis), crabgrass, naked (naked crabgrass, Digitaria nuda), foxtail, green (green foxtail, Setaria viridis), johnsongrass (Sorghum halepense), kochia (Kochia scoparia), morningglory (pitted morningglory, Ipomoea lacunosa), nutsedge, purple (purple nutsedge, Cyperus rotundus), ragweed (common ragweed, Ambrosia elation), mustard, black (black mustard, Brassica nigra), guineagrass (Panicum maximum), dallisgrass (Paspalum dilatatum), barnyardgrass (Echinochloa crus-galli), sandbur (southern sandbur, Cenchrus echinatus), sowthistle (common sowthistle, Sonchus oleraceous), ryegrass, Italian (Italian ryegrass, Lolium multiflorum), signalgrass (broadleaf signalgrass, Brachiaria platyphylla), dayflower, VA (Virginia (VA) dayflower, Commelina virginica), bluegrass (annual bluegrass, Poa annua), quackgrass (Elytrigia repens), mallow (common mallow, Malva sylvestris), buckwheat, wild (wild buckwheat, Polygonum convolvulus), leafy spurge (Euphorbia esula), common chickweed (Stellaria media), wild poinsettia (Euphorbia heterophylla), pigweed, palmer (palmer pigweed, Amaranthus palmeri), and pigweed (redroot pigweed, Amaranthus retroflexus) were planted into a blend of loam soil and sand and treated preemergence with test chemicals formulated in a non-phytotoxic solvent mixture which included a surfactant.
Treated plants and controls were maintained in a greenhouse for 21 days, after which time all species were compared to controls and visually evaluated. Plant response ratings, summarized in Table E, are based on a scale of 0 to 100 where 0 is no effect and 100 is complete control. A dash (-) response means no test result.

Italian ryegrass = test: Test A preemergence; assay type: in vivo, Lolium multiflorum
Procedure, shortened: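 Growth medium: loam soil blended with sand. Preemergence treatment used a directed soil spray right after planting; postemergence treatment targeted seedlings at one to two leaves (2–10 cm height). Response was judged by eye relative to untreated plants about 10 days later on a 0–100 control scale.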

oat, wild = test: Test D preemergence; assay type: in vivo, Avena fatua; conditions: scale 0 to 100
From the text: Seeds of plant species selected from bluegrass (annual bluegrass, Poa annua), blackgrass (Alopecurus myosuroides), canarygrass (littleseed canarygrass, Phalaris minor), chickweed (common chickweed, Stellaria media), galium (catchweed bedstraw, Galium aparine), bromegrass, downy (downy bromegrass, Bromus tectorum), field poppy (Papaver rhoeas), field violet (Viola arvensis), foxtail, green (green foxtail, Setaria viridis), deadnettle (henbit deadnettle, Lamium amplexicaule), ryegrass, Italian (Italian ryegrass, Lolium multiflorum), kochia (Kochia scoparia), lambsquarters (Chenopodium album), oilseed rape (Brassica napus), pigweed (redroot pigweed, Amaranthus retroflexus), chamomile (scentless chamomile, Matricaria inodora), speedwell (bird's-eye speedwell, Veronica persica), barley, spring (spring barley, Hordeum vulgare), wheat, spring (spring wheat, Triticum aestivum), buckwheat, wild (wild buckwheat, Polygonum convolvulus), mustard, wild (wild mustard, Sinapis arvensis), oat, wild (wild oat, Avena fatua), radish, wild (wild radish, Raphanus raphanistrum), windgrass (Apera spica-venti), Russian thistle (Salsola kali), barley, winter (winter barley, Hordeum vulgare), and wheat, winter (winter wheat, Triticum aestivum) were planted into a silt loam soil and treated preemergence with test chemicals formulated in a non-phytotoxic solvent mixture which included a surfactant.
At the same time, these species were planted in pots containing Redi-Earth® planting medium (Scotts Company, 14111 Scottslawn Road, Marysville, Ohio 43041) comprising spaghnum peat moss, vermiculite, wetting agent and starter nutrients and treated with postemergence applications of the test chemicals formulated in the same manner. Plants ranged in height from 2 to 18 cm (1- to 4-leaf stage). Treated plants and controls were maintained in a controlled growth environment for 14 to 21 days after which time all species were compared to controls and visually evaluated. Plant response ratings, summarized in Table D, are based on a scale of 0 to 100 where 0 is no effect and 100 is complete control. A dash (-) response means no test result.

[1] = 125 g ai/ha, visual injury, 0 to 100 scale, approx. 10 days
[2] = 500 g ai/ha, visual injury after approx. 10 days, 0 to 100 scale (0 no effect, 100 complete control)

Structure (SMILES) | Plant response rating, Smartweed (smartweed) | Plant response rating, Dallisgrass (dallisgrass; 16 g ai/ha) | Plant response rating, Dallisgrass (dallisgrass; 31 g ai/ha) | Plant response rating, Dallisgrass (dallisgrass; 62 g ai/ha) | Plant response rating, Dallisgrass (dallisgrass; 125 g ai/ha) | Plant response rating, Dallisgrass (dallisgrass; 250 g ai/ha) | Italian Ryegrass plant response rating (Italian ryegrass; [2]) | Plant response rating, Oat, Wild (oat, wild; 62 g ai/ha) | Plant response rating, Oat, Wild (oat, wild; 125 g ai/ha) | Plant response rating, Oat, Wild (oat, wild; 250 g ai/ha) | further results
CCc1cc(C(=O)NCC(F)(F)F)nn1Cc1ccnc(C(F)(F)F)c1 [Compound 78, 5-ethyl-N-(2,2,2-trifluoroethyl)-1-[[(2-trifluoromethyl)-4-pyridinyl]methyl]-1H-pyrazole-3-carboxamide] | 100 | 90 | 100 | 100 | 100 | 100 | – | – | – | – | –
CCc1cc(C(=O)NC(C)C)nn1Cc1ccnc(C(F)(F)F)c1 [Compound 103] | – | 90 | 100 | 100 | 100 | 100 | – | – | – | – | –
CCOc1cc(C(=O)NCC(F)(F)F)nn1Cc1ccnc(C(F)(F)F)c1 [Compound 104] | 98 | 95 | 98 | 100 | 100 | 100 | – | – | – | – | –
CCCc1cc(C(=O)NCC(F)(F)F)nn1Cc1ccnc(C(F)(F)F)c1 [Compound 105] | 100 | 20 | 95 | 100 | 100 | 100 | – | – | – | – | –
CCONC(=O)c1cc(CC)n(Cc2cc(C(F)(F)F)no2)n1 [Compound 125] | – | – | – | – | – | – | 100 | – | – | – | Italian Ryegrass plant response rating (Italian ryegrass; [1]): 20
CCOc1cc(C(=O)NC2CC2)nn1Cc1ccnc(OC(F)F)c1 [Compound 133] | – | – | – | – | – | – | 90 | – | – | – | Italian Ryegrass plant response rating (Italian ryegrass; [1]): 40
CCCc1cc(C(=O)NCC(F)(F)F)nn1Cc1cc(C(F)(F)F)nn1C [Compound 138] | – | – | – | – | – | – | – | 35 | 75 | 100 | –
CCOc1cc(C(=O)NC(C)C)nn1Cc1ccnc(C(F)(F)F)c1 [Compound 188] | 95 | – | – | – | – | – | – | 100 | 100 | 100 | –
CCOc1cc(C(=O)NC2CC2)nn1Cc1ccnc(C(F)(F)F)c1 [Compound 189] | – | 75 | 100 | 100 | – | – | – | 45 | 75 | 100 | Plant response rating, Dallisgrass (dallisgrass; 4 g ai/ha): 0; Plant response rating, Dallisgrass (dallisgrass; 8 g ai/ha): 5
CCc1cc(C(=O)NCC(F)(F)F)nn1Cc1cc(OC(F)F)nn1C [Compound 206] | – | – | – | – | – | – | 20 | – | – | – | Italian Ryegrass plant response rating (0 to 100 scale) (Italian ryegrass; 125 g ai/ha, visual injury approx. 10 days after treatment): 0

Source: patent US20150105252A1, “SUBSTITUTED PYRAZOLES AS HERBICIDES” (E I DU PONT DE NEMOURS AND COMPANY, priority 2013, published 2015)
